How the values were obtained:
Assay type in all cases: cell-based, influenza virus
[1] = test system: rgA/Giessen/6/09 (H1N1)-PA-I38T
[2] = test system: rgA/Victoria/3/75 (H3N2-PA-I38T)
[3] = test system: A/Mississippi/3/2001 (H1N1) mutant strain with the H275Y mutation in the NA gene

For `O=C(O)c1ccc(F)c(F)c1Nc1ccc(I)cc1Cl` [ATR002, 2-(2-chloro-4-iodophenylamino)-N-3,4-difluoro benzoic acid], the “antiviral effect in mutant strain compared with wild type” value [1] was “steady effect as found in the wild type” and the antiviral activity [2] was “revealed its potency against both variants”.

For `COC(=O)OCOc1c2n(ccc1=O)N([C@@H]1c3ccccc3SCc3c1ccc(F)c3F)[C@@H]1COCCN1C2=O` [BLXM], the “activity lower when investigated using the mutant strain” value [1] was 37% and the “activity lost in the mutant variant” value [2] was “about 41%”.

With `O=C(NOCC1CC1)c1ccc(F)c(F)c1Nc1ccc(I)cc1Cl` [CI-1040] the antiviral effectiveness [3] was “comparable antiviral effect”.

In the case of `CCOC(=O)C1=C[C@@H](OC(CC)CC)[C@H](NC(C)=O)[C@@H](N)C1` [oseltamivir], the antiviral effectiveness [3] is reported as “significant reduction in oseltamivir effectiveness”.

Reference: patent publication US20220370384A1, “COMBINATIONS OF MEK INHIBITORS WITH CAP-DEPENDENT ENDONUCLEASE INHIBITORS” (priority 2019, published 2022)
